Experimental data: patent US11407768B2, “AMPK activators” (Kallyope, Inc., priority 2020, dated 2022)

What was measured:
Caco-2 cells = assay: in vitro
Description: (§1) Caco-2 cells purchased from ATCC were seeded onto […] (PET) in 96-well BD Insert plates at 1×10^5 cells/cm^2, and refreshed medium every 4-5 days until to the 21st to 28th day for confluent cell monolayer formation. The transport buffer in the study was HBSS with 10 mM HEPES at pH 7.40±0.05. Test compounds were tested at 2 μM bi-directionally in duplicate. Digoxin was tested at 10 μM bi-directionally in duplicate, while nadolol and metoprolol were tested at 2 μM in A to B direction in duplicate. Final DMSO concentration was adjusted to less than 1%.
(§2) The plate was incubated for 2 hours in CO2 incubator at 37±1° C., with 5% CO2 at saturated humidity without shaking. All samples were mixed with acetonitrile containing internal standard and were centrifuged at 4000 rpm for 10 min. Subsequently, 100 μL supernatant solution was diluted with 100 μL distilled water for LC/MS/MS analysis. Concentrations of test and control compounds in starting solution, donor solution, and receiver solution were quantified by LC/MS/MS, using peak area ratio of analyte/internal standard.

in vitro = details: human; for Papp A→B at 2 h, 2 μM / Papp B→A at 2 h, 2 μM: Caco-2, pH 7.4; for efflux ratio at 2 h, 2 μM: Caco-2, pH 7.4, Efflux Ratio
Description: as §1, §2

[1] = target: Recombinant AMPK α1/β1/γ1 complex (Homo sapiens (Human), UniProt Q13131+Q9Y478); assay: In vitro pAMPK1 kinase activation assay (ADP-Glo, SAMS peptide); type: biochemical; details: AMPK α1/β1/γ1 pre-activated with CAMKK2; 12-point curve; 15 min compound incubation
Chain of Recombinant AMPK α1/β1/γ1 complex (Q13131 whole entry): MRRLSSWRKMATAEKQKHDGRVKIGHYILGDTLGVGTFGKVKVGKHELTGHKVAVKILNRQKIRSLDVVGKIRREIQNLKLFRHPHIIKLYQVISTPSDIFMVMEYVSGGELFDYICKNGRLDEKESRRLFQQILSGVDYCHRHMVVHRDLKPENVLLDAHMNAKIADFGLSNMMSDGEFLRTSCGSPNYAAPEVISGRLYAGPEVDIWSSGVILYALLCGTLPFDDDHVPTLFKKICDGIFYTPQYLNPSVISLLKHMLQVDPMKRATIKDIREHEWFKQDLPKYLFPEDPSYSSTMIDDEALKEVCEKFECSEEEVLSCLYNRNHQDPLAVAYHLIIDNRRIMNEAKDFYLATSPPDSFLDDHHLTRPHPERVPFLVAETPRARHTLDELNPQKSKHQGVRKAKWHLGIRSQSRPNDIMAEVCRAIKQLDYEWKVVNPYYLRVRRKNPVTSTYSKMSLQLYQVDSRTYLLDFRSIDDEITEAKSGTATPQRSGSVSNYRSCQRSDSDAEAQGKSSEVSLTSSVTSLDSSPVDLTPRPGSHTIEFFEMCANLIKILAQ
Chain of Recombinant AMPK α1/β1/γ1 complex (Q9Y478 whole entry): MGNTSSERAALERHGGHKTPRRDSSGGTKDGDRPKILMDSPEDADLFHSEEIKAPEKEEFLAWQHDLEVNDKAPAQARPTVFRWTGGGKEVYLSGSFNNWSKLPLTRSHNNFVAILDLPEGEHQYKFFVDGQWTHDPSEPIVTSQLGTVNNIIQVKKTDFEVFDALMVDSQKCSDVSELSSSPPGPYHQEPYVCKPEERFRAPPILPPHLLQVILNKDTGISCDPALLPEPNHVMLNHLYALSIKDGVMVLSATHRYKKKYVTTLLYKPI
Chain of Recombinant AMPK α1/β1/γ1 complex (P54619 whole entry partner): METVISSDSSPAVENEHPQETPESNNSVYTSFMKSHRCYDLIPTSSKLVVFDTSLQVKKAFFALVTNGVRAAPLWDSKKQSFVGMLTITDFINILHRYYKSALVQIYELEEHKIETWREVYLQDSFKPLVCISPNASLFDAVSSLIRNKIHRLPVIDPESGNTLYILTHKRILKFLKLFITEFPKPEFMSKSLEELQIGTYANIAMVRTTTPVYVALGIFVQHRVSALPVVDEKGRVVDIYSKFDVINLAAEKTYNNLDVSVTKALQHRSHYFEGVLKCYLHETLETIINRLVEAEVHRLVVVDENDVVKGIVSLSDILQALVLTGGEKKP
How it was run: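 CAMKK2-pre-activated α1/β1/γ1 complex incubated 15 minutes with compound, then SAMS peptide phosphorylation measured cell-free by ADP-Glo. 12-point concentration curves; EC50 fitted by interpolation to an ATP:ADP standard curve.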

blood glucose levels = assay: Intraperitoneal (IP) glucose tolerance test in mice; type: in vivo; details: for % Change in Average Total AUC (0-90 min) vs. Vehicle: blood glucose, glucose 2 g/kg IP; for change in blood glucose AUC vs. vehicle / systemic AMPK activation (in words): 30 mpk for all compounds, up to 100 mpk for Compound 4
From the text: Systemic AMPK target engagement in vivo can be assessed by measuring the glucose levels in blood following administration of compounds, whereby AMPK activation in skeletal muscle leads in a decrease in overall blood glucose levels.
Compounds were formulated in vehicle (0.25% methyl cellulose, 5% Tween 80, 0.02% sodium dodecyl sulfate (SDS) in Hanks' Buffered Salt Solution with Ca^2+ and Mg^2). Immediately prior to compound dosing, the tip of the tail was removed with scissors and a drop of blood was collected onto a glucometer strip (Bayer Contour Next) for a −1 hour blood glucose measure. The mice were then immediately administered vehicle or compound at 10 mL/kg PO. Approximately one hour later, mice were tail bled for a 0 min blood glucose reading, and then immediately after were administered D(+) glucose (2 g/kg, made up in saline) at 5 mL/kg IP. Tail bleeds were then performed on all mice at 20 min, 40 min, 60 min, and 90 min post D(+) glucose administration for blood glucose measures. Area under the curves (AUCs) for blood glucose measures were then calculated for each treatment from 0-90 mins.

[2] = test system: Chemotherapy-induced Intestinal Injury Model; assay: Diarrhea in mouse chemotherapy-induced (5FU) intestinal injury model; type: in vivo, BALB/c mice; details: 5FU 400 mg/kg IP; for Diarrhea Score Day 5 / Diarrhea Score Day 6: score 0-3
Description: Compounds were formulated in vehicle (0.25% methyl cellulose, 5% Tween 80, 0.02% sodium dodecyl sulfate (SDS) in Hanks' Buffered Salt Solution with Ca' and Mg'). On day 1, either saline or a 400 mg/kg dose of 5-fluorouracil (5FU) in saline was administered by intraperitoneal injection to BALB/c mice. Starting on day 2, vehicle or compound was administered twice a day by oral gavage. From days 5 to 6 post-5FU, the animals were scored for diarrhea severity once a day. The diarrhea was scored 0-3 as follows: 0—normal consistency (black and solid), 1—soft (black and a bit lighter/yellow), 2—loosely shaped stool (yellowish and somewhat watery), 3—extreme diarrhea (very watery).

[3] = Pharmacokinetics (oral bioavailability) in C57BL/6 mice; details: mouse, in vivo; for bioavailability: IV 1 mg/kg, PO 30 mg/kg; for Vd: following IV administration, 1 mg/kg, read-out: volume of distribution
Description: Selected compounds were tested for pharmacokinetics in C57BL/6 mice. Compounds 1, 4, 31, 32, 40, 55, 57 and 60 were dosed IV at 1 mg/kg as a formulation of 0.2 mg/mL in 5% DMSO+30% PEG400+65% water and were dosed PO at 30 mg/kg as a formulation of 3 mg/mL in 0.25% MC+5% Tween 80+0.02% SDS. Compound 2 was dosed IV at 1 mg/kg as a formulation of 0.2 mg/mL in 5% ethanol +95% saline and was dosed PO at 30 mg/kg as a formulation of 3 mg/mL in 0.25% MC+5% Tween 80+0.02% SDS.

[4] = test system: Acute Dextran Sulfate Sodium (DSS) Colitis Model; assay: Intestinal barrier function in mouse acute DSS colitis model (FITC-dextran); type: in vivo, C57B1/6 mice; details: 30 mg/kg QD oral; 3% DSS 7 days; serum FITC-dextran
Description: Compounds were formulated in vehicle (0.25% methyl cellulose, 5% Tween 80, 0.02% sodium dodecyl sulfate (SDS) in Hanks' Buffered Salt Solution with Ca^2+ and Mg^2+). Vehicle or compound was administered once daily by oral gavage to C57B1/6 mice. After 3 days of pre-dosing, dextran sulfate sodium (DSS) was simultaneously administered at 3% in drinking water, and appropriate water-only controls were included.
After 7 days of DSS administration, animals treated were switched back to their regular water source and administered a single oral bolus dose of FITC-dextran (FD) four hours prior to necropsy. The animals were sacrificed by cardiac puncture and serum was collected. The concentration of […] present in serum was determined by measuring fluorescence intensity on a standard plate reader, and fitting values back to a standard curve.

[5] = test system: Madin-Darby Canine Kidney (MDCK) cells; assay: In vitro MDCK epithelial permeability assay (calcium switch, FITC-dextran); type: cell-based; details: low calcium medium, MDCK monolayers
From the text: In order to quantitatively measure the effects of transporter substrate AMPK activators on epithelial permeability in vitro, standard calcium switch protocols from the literature were adapted for use with Madin-Darby Canine Kidney (MDCK) cells grown on Corning Transwell inserts for use with fluorescein isothiocyanate-dextran, average molecular weight 4 kDa (FITC-dextran). FITC-dextran is a large, metabolically inert sugar molecule that is not readily transferrable across healthy epithelial barriers in vitro or in vivo. This compound has been tagged with a fluorophore to easily track its movement.
Briefly, MDCK cells were seeded onto Transwell inserts and grown according to manufacturer instructions until confluent. On the day of the experiment, a baseline reading was taken in standard growth media in which FITC-dextran was spiked into the apical chamber and the percent permeation of FITC-dextran from the apical to the basolateral chamber was measured. The inserts were then washed in low calcium medium (LCM) containing either vehicle or compound to remove residual FITC-dextran and calcium, and FITC-dextran was once again spiked into the apical chamber and the percent permeation in LCM was measured. […] The fold induction of FITC-dextran permeation to the basolateral chamber when each well was transferred from baseline growth media to LCM was then calculated.

[6] = Caco-2, pH 7.4, Mean Recovery A to B
[7] = Caco-2, pH 7.4, Mean Recovery B to A

OC[C@@H](O)[C@@H](O)[C@H](O)[C@@H](O)CNCc1ccc(-c2ccc(-c3nc4nc(O[C@@H]5CO[C@H]6[C@@H]5OC[C@H]6O)[nH]c4cc3Cl)cc2)cc1 [Compound 4, (2R,3R,4R,5S)-6-(((4′-(6-chloro-2-(((3R,3aR,6R,6aR)-6-hydroxyhexahydrofuro[3,2-b]furan-3-yl)oxy)-1H-imidazo[4,5-b]pyridin-5-yl)-[1,1′-biphenyl]-4-yl)methyl)amino)hexane-1,2,3,4,5-pentaol]
permeability (in words) (Caco-2 cells; Caco-2): low permeability
Papp A→B at 2 h, 2 μM (in vitro): < 0.48 ×10⁻⁶ cm/s
Papp B→A at 2 h, 2 μM (in vitro): 0.71 ×10⁻⁶ cm/s
efflux ratio at 2 h, 2 μM (in vitro): > 1.48
recovery at 2 h, 2 μM (in vitro; [6]): < 99.6%
recovery at 2 h, 2 μM (in vitro; [7]): 102%
EC50 [1]: 100 pM
% Change in Average Total AUC (0-90 min) vs. Vehicle (blood glucose levels; 30 mpk PO): −0.9%
change in blood glucose AUC vs. vehicle / systemic AMPK activation (in words) (blood glucose levels): do not lead to activation of AMPK in skeletal muscle
% Change in Average Total AUC (0-90 min) vs. Vehicle (blood glucose levels; 100 mpk PO): +2.3%
Diarrhea Score Day 5, % Change vs. Vehicle ([2]; 3 mpk BID oral): −16%
Diarrhea Score Day 6, % Change vs. Vehicle ([2]; 3 mpk BID oral): −44%
Diarrhea Score Day 5 ([2]; 3 mpk BID oral): 0.75
Diarrhea Score Day 6 ([2]; 3 mpk BID oral): 1.00
Diarrhea Score Day 5, % Change vs. Vehicle ([2]; 10 mpk BID oral): −72%
Diarrhea Score Day 6, % Change vs. Vehicle ([2]; 10 mpk BID oral): −79%
Diarrhea Score Day 5 ([2]; 10 mpk BID oral): 0.25
Diarrhea Score Day 6 ([2]; 10 mpk BID oral): 0.38
half-life [3]: 1.4 h
bioavailability [3]: < 1%
Vd [3]: < 1 L/kg
Change in Fluorescence Intensity vs. Vehicle [4]: −43%

O=C(NC[C@H](O)[C@@H](O)[C@H](O)[C@H](O)CO)c1ccc(-c2ccc(-c3nc4nc(O[C@@H]5CO[C@H]6[C@@H]5OC[C@H]6O)[nH]c4cc3Cl)cc2)cc1 [Compound 1, 4′-(6-chloro-2-(((3R,3aR,6R,6aR)-6-hydroxyhexahydrofuro[3,2-b]furan-3-yl)oxy)-1H-imidazo [4,5-b]pyridin-5-yl)-N-((2S,3R,4R,5R)-2,3,4,5,6-pentahydroxyhexyl)-[1,1′-biphenyl]-4-carboxamide]
permeability (in words) (Caco-2 cells; Caco-2): low permeability
Efflux Ratio (Caco-2 cells; human, Caco-2, 2 h, 2 μM, pH 7.4): >2.90
Papp A→B at 2 h, 2 μM (in vitro): < 0.25 ×10⁻⁶ cm/s
Papp B→A at 2 h, 2 μM (in vitro): 0.73 ×10⁻⁶ cm/s
efflux ratio at 2 h, 2 μM (in vitro): > 2
recovery at 2 h, 2 μM (in vitro; [6]): < 82.6%
recovery at 2 h, 2 μM (in vitro; [7]): 89.9%
EC50 [1]: 50 pM
% Change in Average Total AUC (0-90 min) vs. Vehicle (blood glucose levels; 30 mpk PO): −7.5%
change in blood glucose AUC vs. vehicle / systemic AMPK activation (in words) (blood glucose levels): do not lead to activation of AMPK in skeletal muscle
reduction of FITC-dextran permeation relative to vehicle ([5]; 0.1 μM): 33%
reduction of FITC-dextran permeation relative to vehicle ([5]; 10 μM): 35%
bioavailability [3]: < 1%
Vd [3]: < 5 L/kg

CC(C)(C)NCC(O)COc1cccc2c1CC(O)C(O)C2 (stereo not shown) [Nadolol, nadolol, reference compound]
Mean Recovery A to B (Caco-2 cells; Caco-2): 97.74%
Mean Papp A to B (Caco-2 cells; Caco-2, pH 7.4): 0.08 10^−6 cm/s

OCC1(CO)CCN(Cc2ccc(-c3ccc(-c4cc5nc(O[C@@H]6CO[C@H]7[C@@H]6OC[C@H]7O)[nH]c5cc4Cl)cc3)cc2)CC1 [Compound 60, (1-((4′-(6-chloro-2-(((3R,3aR,6R,6aR)-6-hydroxyhexahydrofuro[3,2-b]furan-3-yl)oxy)-1H-benzo[d]imidazol-5-yl)-[1,1′-biphenyl]-4-yl)methyl)piperidine-4,4-diyl)dimethanol]
EC50 [1]: 850 pM
Diarrhea Score Day 5, % Change vs. Vehicle ([2]; 30 mpk BID oral): −71%
Diarrhea Score Day 6, % Change vs. Vehicle ([2]; 30 mpk BID oral): −66%
Diarrhea Score Day 5 ([2]; 30 mpk BID oral): 0.38
Diarrhea Score Day 6 ([2]; 30 mpk BID oral): 0.38
bioavailability [3]: < 15%
Vd [3]: < 5 L/kg

O=P(O)(O)c1ccc(-c2ccc(-c3nc4nc(O[C@@H]5CO[C@H]6[C@@H]5OC[C@H]6O)[nH]c4cc3Cl)cc2)cc1 [Compound 2, (4′-(6-chloro-2-(((3R,3aR,6R,6aR)-6-hydroxyhexahydrofuro[3,2-b]furan-3-yl)oxy)-1H-imidazo[4,5-b]pyridin-5-yl)-[1,1′-biphenyl]-4-yl)phosphonic acid]
EC50 [1]: 1400 pM
% Change in Average Total AUC (0-90 min) vs. Vehicle (blood glucose levels; 30 mpk PO): +6.6%
change in blood glucose AUC vs. vehicle / systemic AMPK activation (in words) (blood glucose levels): do not lead to activation of AMPK in skeletal muscle
bioavailability [3]: < 1%
Vd [3]: < 5 L/kg

O=C(NCCOCCO)c1ccc(-c2ccc(-c3cc4nc(O[C@@H]5CO[C@H]6[C@@H]5OC[C@H]6O)[nH]c4cc3Cl)cc2)cc1 [Compound 31, 4′-(6-chloro-2-(((3R,3aR,6R,6aR)-6-hydroxyhexahydrofuro[3,2-b]furan-3-yl)oxy)-1H-benzo[d]imidazol-5-yl)-N-(2-(2-hydroxyethoxy)ethyl)-[1,1′-biphenyl]-4-carboxamide]
permeability (in words) (Caco-2 cells; Caco-2): low permeability
Papp A→B at 2 h, 2 μM (in vitro): 0.115 ×10⁻⁶ cm/s
Papp B→A at 2 h, 2 μM (in vitro): 31.7 ×10⁻⁶ cm/s
recovery at 2 h, 2 μM (in vitro; [6]): 83.2%
recovery at 2 h, 2 μM (in vitro; [7]): 97.8%
EC50 [1]: 850 pM
Diarrhea Score Day 5, % Change vs. Vehicle ([2]; 30 mpk BID oral): −67%
Diarrhea Score Day 6, % Change vs. Vehicle ([2]; 30 mpk BID oral): −61%
Diarrhea Score Day 5 ([2]; 30 mpk BID oral): 0.43
Diarrhea Score Day 6 ([2]; 30 mpk BID oral): 0.63
half-life [3]: 1.7 h
bioavailability [3]: < 10%
Vd [3]: < 5 L/kg
Change in Fluorescence Intensity vs. Vehicle [4]: −41%
